According to PMC6941148 (Journal of medicinal chemistry, 2019):

Columns and labels:
WT HIV-1 strain NL4-3 = assay: Cell-based antiviral assay; conditions: relative to DRV
MDR HIV-1 variant VSL20 = assay: Cell-based antiviral assay; conditions: relative to corresponding isobutyl analogues 12 and 13
[1] = target: HIV-1 protease I84V variant (Human immunodeficiency virus type 1 group M subtype B, UniProt P12497, I572V/Q495K); assay type: biochemical

Structure (SMILES) | fold less active than DRV against wild-type HIV-1 (WT HIV-1 strain NL4-3) | fold loss in potency against VSL20 compared to analogues 12 and 13 (MDR HIV-1 variant VSL20) | other results
CCC(CC)CN(C[C@@H](O)[C@H](Cc1ccccc1)NC(=O)O[C@H]1CO[C@H]2OCC[C@H]21)S(=O)(=O)c1ccc([C@@H](O)CO)cc1 [Compound 26, (3R,3aS,6aR)-Hexahydrofuro[2,3-b]furan-3-yl ((2S,3R)-4-((4-((R)-1,2-dihydroxyethyl)-N-(2-ethylbutyl)phenyl)sulfonamido)-3-hydroxy-1-phenylbutan-2-yl)carbamate] | 8 fold |  | 
CC[C@H](C)CN(C[C@@H](O)[C@H](Cc1ccccc1)NC(=O)O[C@H]1CO[C@H]2OCC[C@H]21)S(=O)(=O)c1ccc([C@@H](C)O)cc1 [Compound 15, (3R,3aS,6aR)-Hexahydrofuro[2,3-b]furan-3-yl ((2S,3R)-3-hydroxy-4-((4-((R)-1-hydroxyethyl)-N-((S)-2-methylbutyl)phenyl)sulfonamido)-1-phenylbutan-2-yl)carbamate] |  | 2 fold | 
CC[C@H](C)CN(C[C@@H](O)[C@H](Cc1ccccc1)NC(=O)O[C@H]1CO[C@H]2OCC[C@H]21)S(=O)(=O)c1ccc([C@H](C)O)cc1 [Compound 14, (3R,3aS,6aR)-Hexahydrofuro[2,3-b]furan-3-yl ((2S,3R)-3-hydroxy-4-((4-((S)-1-hydroxyethyl)-N-((S)-2-methylbutyl)phenyl)sulfonamido)-1-phenylbutan-2-yl)carbamate] |  | 2 fold | 
CC(C)CN(C[C@@H](O)[C@H](Cc1ccccc1)NC(=O)O[C@H]1CO[C@H]2OCC[C@H]21)S(=O)(=O)c1ccc([C@H](O)CO)cc1 [Compound 23, (3R,3aS,6aR)-Hexahydrofuro[2,3-b]furan-3-yl ((2S,3R)-4-((4-((S)-1,2-dihydroxyethyl)-N-isobutylphenyl)sulfonamido)-3-hydroxy-1-phenylbutan-2-yl)carbamate] |  |  | fold less active against the I84V protease than the P2′ epimer 22 ([1]; I84V protease, relative to diastereoisomer 22): about 3 fold
CCC(CC)CN(C[C@@H](O)[C@H](Cc1ccccc1)NC(=O)O[C@H]1CO[C@H]2OCC[C@H]21)S(=O)(=O)c1ccc([C@H](O)CO)cc1 [Compound 27, (3R,3aS,6aR)-Hexahydrofuro[2,3-b]furan-3-yl ((2S,3R)-4-((4-((S)-1,2-dihydroxyethyl)-N-(2-ethylbutyl)phenyl)sulfonamido)-3-hydroxy-1-phenylbutan-2-yl)carbamate] | 8 fold |  | fold less potent against the protease variants tested than the (R)-epimer 26 ([1]; I84V and I50V/A71V variants, relative to 26): 2–3 fold
